Source: US20110287110A1, “COMBINATION CANCER TREATMENT” (priority 2010, published 2011)

Legend:
Ctr1 = settings: cells with Ctr1 deleted; Ishida et al. 2002, Larson et al. 2009; cited from earlier work
WT and Ctr1−/− MEFs [1] = experiment: Cisplatin uptake/accumulation (intracellular platinum by ICP-AES) in MEFs; format: cell-based, mouse; settings: cisplatin 100 μg/mL
Protocol: (§1) Bladder cell lines (5637, J82, RT4, MB49, MBT2, and NBT2) were kindly provided by Brant A. Inman, MD. J82, NBT2, MB49, and MBT2 cells were cultured in Dulbecco's modified Eagle's medium (DMEM) containing 10% fetal bovine serum (FBS) and 1% antibiotic-antimycotic (AA; Invitrogen). RT4 and 5637 cells were cultured in McCoy's 5A modified medium and RPMI-1640 medium, respectively, containing 10% FBS and 1% AA. The WT and Ctr1−/− MEF cell lines as well as the Ctr1 antibody were kindly provided by Dennis J. Thiele, PhD. MEF cells were cultured in DMEM containing 20% FBS, 1% L-Glutamine-Penicillin-Streptomycin (Sigma), 1% sodium pyruvate, 1% nonessential amino acids, 0.5 mg/L uridine (Sigma), and 55 μM 2-mercaptoethanol. All cells were maintained at 37° C. and at 5% CO2.
WT and Ctr1−/− MEFs were plated into T175 flasks and treated with concurrent hyperthermia (42° C.) or normothermia (37° C.) and cisplatin (100 μg/mL; APP Pharmaceuticals; 50 mg/50 mL) for 1 hour. Following this 1 hour incubation, cells were incubated with cisplatin for an additional hour at 37° C. Cells were then washed twice with PBS and harvested into 1 mL of 3N HCl and 10% TCA. Samples were digested at 70° C. for 18 hours and centrifuged at 20,800×g for 5 minutes. The supernatants were collected, and intracellular platinum accumulation was measured using inductively coupled plasma atomic emission spectroscopy (ICP-AES) at the EPA, Chapel Hill, N.C.

[2] = system: WT and Ctr1−/− mouse embryonic fibroblasts (MEFs); experiment: Clonogenic survival assay, sensitivity to cisplatin in WT and Ctr1−/− MEFs; format: cell-based; settings: cisplatin 1, 5, or 10 μM for 2 hours, FIG. 2
Protocol: as §1
Basal Ctr1 protein expression was assessed using western blot in WT and Ctr1−/− mouse embryonic fibroblasts (MEFs). Sensitivity to cisplatin was assessed using a clonogenic survival assay. Briefly, a known density of cells was plated in 6-well plates. Approximately 18-24 hours after plating, cells were exposed to cisplatin (1, 5, or 10 μM; APP Pharmaceuticals; 50 mg/50 mL) or saline for 2 hours. […] Cells were incubated until colonies (50+ cells) were detected (7-14 days). Colonies were then stained using crystal violet and counted.

WT and Ctr1−/− MEFs [3] = experiment: Platinum-DNA adduct formation (immunofluorescence) in MEFs; format: cell-based, mouse; settings: WT compared to Ctr1−/− cells, particularly following hyperthermia; 50 μg/mL cisplatin; FIG. 4
Protocol: as §1
WT and Ctr1−/− MEFs were plated on coverslips (80,000-90,000 cells) in 6-well plates. Approximately 24-48 hours after plating, cells were treated with or without concurrent mild hyperthermia (42° C.) or normothermia (37° C.) and 50 μg/mL cisplatin (APP Pharmaceuticals; 50 mg/50 mL) for 1 hour. Following this initial 1 hour treatment, cells were incubated for 3 additional hours at 37° C. Following treatment, platinum-DNA adducts were stained using immunofluorescence. […] Cells were imaged using a Zeiss Axio Imager widefield fluorescence microscope (Carl Zeiss MicroImaging).

[4] = system: bladder cancer cell lines (5637, J82, RT4, MB49, MBT2, NBT2); experiment: Clonogenic survival assay, sensitivity to cisplatin in bladder cancer cell lines; format: cell-based, human and rodent; settings: cells expressing higher basal levels of Ctr1 (5637 and MBT2) vs other lines; cisplatin 1, 5, 10, or 50 μM for 2 hours; FIG. 1
Protocol: as §1, with “All cells were maintained at 37° C. and at 5% CO2.” left out
Basal Ctr1 protein expression was assessed using Western blot in several different human (5637, J82, and RT4) and rodent (MB49, MBT2, and NBT2) bladder cancer cell lines. […] Samples were centrifuged at 12,000 rpm, and 100 μg of protein was separated using 4-20% SDS-PAGE, transferred to PVDF membrane and detected by chemiluminescence using anti-Ctr1 antibody (1:1000; kindly provided by Dennis J. Thiele, PhD) followed by anti-rabbit HRP antibody (1:2000; Bio-Rad). Sensitivity to cisplatin was assessed using a clonogenic survival assay. […] Cells were incubated until colonies (50+ cells) were detected (7-14 days). Colonies were then stained using crystal violet and counted.

SMILES: N.N.[Cl][Pt][Cl] [cisplatin, cis-diamminedichloroplatinum (II)]
- Cisplatin resistance (Ctr1): increased
- Cisplatin uptake (Ctr1): decreased
- Further increase in platinum uptake after hyperthermia (WT and Ctr1−/− MEFs [1]; Ctr1−/− cells, hyperthermia 42° C. vs normothermia 37° C.): not observed
- Platinum levels (intracellular platinum accumulation) (WT and Ctr1−/− MEFs [1]; WT cells compared to Ctr1−/− cells, with and without hyperthermia (42° C.), FIG. 3): Higher platinum levels
- Platinum uptake after hyperthermia (WT and Ctr1−/− MEFs [1]; WT cells, hyperthermia 42° C. vs normothermia 37° C.): further increase
- Sensitivity to cisplatin (clonogenic survival) ([2]; Ctr1−/− MEFs (do not express Ctr1)): more resistant
- Sensitivity to cisplatin (clonogenic survival) ([2]; WT MEFs (higher basal Ctr1)): more sensitive
- Percentages of adduct-positive cells and adduct formation (WT and Ctr1−/− MEFs [3]): Higher
- Sensitivity to cisplatin (clonogenic survival) [4]: more sensitive
